The text below walks through data of article PMC8469457, “Proline-Specific Fungal Peptidases: Genomic Analysis and Identification of Secreted DPP4 in Alkaliphilic and Alkalitolerant Fungi” (Journal of Fungi, 2021).

This assay has as its target T1, DPP4 of S. alkalinus F11 (secreted DPP4, culture filtrate) (Sodiomyces alkalinus, UniProt A0A3N2PX53).
T1 construct: gene SODALDRAFT_276413; native secreted enzyme, unpurified 14-day culture filtrate; link of ROT38925.1 to the assayed activity is inferred
T1 sequence (A0A3N2PX53 27-782): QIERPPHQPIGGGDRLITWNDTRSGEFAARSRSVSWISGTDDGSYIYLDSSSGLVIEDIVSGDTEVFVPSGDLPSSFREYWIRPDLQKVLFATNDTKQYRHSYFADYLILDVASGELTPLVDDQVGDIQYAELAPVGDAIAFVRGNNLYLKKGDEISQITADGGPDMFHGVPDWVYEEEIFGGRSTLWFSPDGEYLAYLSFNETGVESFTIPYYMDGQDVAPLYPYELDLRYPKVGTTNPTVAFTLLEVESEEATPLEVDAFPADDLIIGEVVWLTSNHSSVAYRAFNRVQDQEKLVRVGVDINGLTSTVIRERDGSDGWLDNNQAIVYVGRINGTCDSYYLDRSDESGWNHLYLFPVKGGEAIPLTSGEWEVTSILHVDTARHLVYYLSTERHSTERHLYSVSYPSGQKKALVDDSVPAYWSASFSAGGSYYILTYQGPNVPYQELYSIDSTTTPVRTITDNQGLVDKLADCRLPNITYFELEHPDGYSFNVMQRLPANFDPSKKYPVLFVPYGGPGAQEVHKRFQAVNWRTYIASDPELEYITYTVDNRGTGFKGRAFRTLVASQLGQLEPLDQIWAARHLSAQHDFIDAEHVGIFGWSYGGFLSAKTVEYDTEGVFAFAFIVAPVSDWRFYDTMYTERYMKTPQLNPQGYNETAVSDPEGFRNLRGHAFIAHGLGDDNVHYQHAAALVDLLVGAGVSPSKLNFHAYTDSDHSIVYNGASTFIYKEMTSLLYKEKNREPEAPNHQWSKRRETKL
Nature of the assay: residual hydrolysis of Ala-Pro-pNa, absorbance at […] nm, culture filtrate. It is filed as biochemical. Conditions: read-out: % residual activity at 0.25 mM.

As to `CC[C@H](C)[C@H](N)C(=O)N1CCC[C@H]1C(=O)N[C@H](C(=O)O)[C@@H](C)CC` [diprotin A], the remaining activity at 250 µM was determined as 3.2%.
